Earlier results on 1 compound are cited in patent EP4555997A1, “WATER-SOLUBLE COMPOSITION COMPRISING UROLITHIN” (Science4Beauty Sp. z o.o., priority 2023, dated 2025).

For the series the following is noted: HPLC-determined, water at 30° C.

SMILES strings stand for the structures.

In the case of `O=c1oc2cc(O)ccc2c2ccc(O)cc12` [UroA, 3,8-dihydroxy-6H-benzo[c]chromen-6-one], the solubility in water result is listed as “less than 0.01 g/L”.
